How the values were obtained:
Plutella xylostella = assay: Example D: Plutella Test (7:1); type: in vivo; conditions: concentration of 1000 ppm
Description: (§1) To produce a suitable preparation of active compound, 1 part by weight of active compound is mixed with the stated amounts of solvent and emulsifier, and the concentrate is diluted with emulsifier-containing water to the desired concentration.
Cabbage leaves (Brassica oleracea) are treated by being dipped into the preparation of active compound of the desired concentration and are populated with caterpillars of the diamond back moth (Plutella xylostella) while the leaves are still moist.
After the desired period of time, the kill in % is determined. 100% means that all caterpillars have been killed; 0% means that none of the caterpillars have been killed.

Nephotettix cincticeps = assay: Example F: Nephotettix Test (7:1); type: in vivo; conditions: concentration of 1000 ppm
Description: as §1
Rice seedlings (Oryza sativa) are treated by being dipped into the preparation of active compound of the desired concentration and are populated with the green rice leaf hopper (Nephotettix cincticeps) while the leaves are still moist.
After the desired period of time, the kill in % is determined. 100% means that all leaf hoppers have been killed; 0% means that none of the leaf hoppers have been killed.

Echinocloa crus-galli = assay: Example V 2: Herbicidal Post-Emergence Action; type: in vivo; conditions: greenhouse, 320 g of a.i./ha, about 3 weeks
Description: (§2) Seeds of monocotyledonous and dicotyledonous weed and crop plants are placed into sandy loam in wood fibre pots, covered with soil and cultivated in a greenhouse under good growth conditions. 2-3 weeks after sowing, the test plants are treated at the one-leaf stage. The test compounds, formulated as wettable powders (WP), are then, in various dosages with a water application rate of 600 l/ha (converted), with 0.2% of wetting agent added, sprayed onto the green parts of the plants. After the test plants have been kept in the greenhouse under optimum growth conditions for about 3 weeks, the effect of the preparations is rated visually in comparison to untreated controls (herbicidal effect in percent (%): 100% effect=the plants have died, 0% effect=like control plants).

Lolium multiflorum = assay: Example V 2: Herbicidal Post-Emergence Action; type: in vivo; conditions: greenhouse, 320 g of a.i./ha, about 3 weeks
Description: as §2

Setaria viridis = assay: Example V 2: Herbicidal Post-Emergence Action; type: in vivo; conditions: greenhouse, 320 g of a.i./ha, about 3 weeks
Description: as §2

[1] = test system: monocotyledonous and dicotyledonous weed and crop plants; assay: Example V 2: Herbicidal Post-Emergence Action; type: in vivo; conditions: greenhouse, 320 g of a.i./ha, about 3 weeks
Description: as §2

Meloidogyne incognita [2] = assay: Example P: Meloidogyne Test (spray treatment); type: in vivo; conditions: concentration of 20 ppm
Description: To produce a suitable preparation of active compound, 1 part by weight of active compound is mixed with the stated amount of solvent, and the concentrate is diluted with water to the desired concentration.
(§3) Vessels are filled with sand, solution of active compound, Meloidogyne incognita egg/larvae suspension and lettuce seeds. The lettuce seeds germinate and the plants develop. On the roots, galls are formed.
(§4) After the desired period of time, the nematicidal activity is determined in % by the formation of galls. 100% means that no galls have been found; 0% means that the number of galls on the treated plants corresponds to that of the untreated control.

Test plants = assay: Example U: Pre-emergence Test; type: in vivo; conditions: greenhouse, 250 g of a.i./ha, after three weeks
Description: To produce a suitable preparation of active compound, 1 part by weight of active compound is mixed with the stated amount of solvent, the stated amount of emulsifier is added and the concentrate is diluted with water to the desired concentration.
Seeds of the test plants are sown in normal soil. After about 24 hours, the soil is sprayed with the preparation of active compound such that the particular amounts of active compound desired are applied per unit area. The concentration of the spray liquor is chosen such that the particular amounts of active compound desired are applied in 1000 l of water/ha.
After three weeks, the degree of damage to the plants is rated in % damage in comparison to the development of the untreated control.
The figures denote: • 0%=no effect (like untreated control) • 100%=total destruction

cereal crop plants = assay: Profiling tests, herbicidal post-emergence action with safeners: container trials with cereal in a greenhouse, Mefenpyr 1 day prior to herbicide application; conditions: in vivo
Description: Test Description for Profiling Tests
2. Herbicidal Post-Emergence Action
Seeds of monocotyledonous and dicotyledonous weed and crop plants are placed into sandy loam in wood fibre pots or in plastic pots, covered with soil and cultivated in a greenhouse, during the vegetation period also outdoors outside of the greenhouse, under good growth conditions. 2-3 weeks after sowing, the test plants are treated at the one- to three-leaf stage. The test compounds, formulated as wettable powders (WP) or emulsifiable concentrates (EC) are, in various dosages with a water application rate of 300 l/ha (converted), with wetting agent (0.2 to 0.3%) added, sprayed onto the plants and the surface of the soil. […] after the treatment of the test plants, the effect of the preparations is rated visually in comparison to untreated controls (herbicidal effect in percent (%): 100% effect=the plants have died, 0% effect=like control plants). […]

Phaedon cochleariae [3] = assay: Example M: Phaedon cochleariae Larvae Test; type: in vivo; conditions: concentration of 100 ppm
Description: [table] To produce a suitable preparation of active compound, 1 part by weight of active compound is mixed with the stated amounts of solvent and emulsifier, and the concentrate is diluted with emulsifier-containing water to the desired concentration. Cabbage leaves (Brassica oleracea) are treated by being dipped into the preparation of active compound of the desired concentration and are populated with larvae of the mustard beetle (Phaedon cochleariae) while the leaves are still moist.

Meloidogyne incognita [4] = assay: Example K: Meloidogyne Test; type: in vivo; conditions: concentration of 20 ppm
Description: (§5) To produce a suitable preparation of active compound, 1 part by weight of active compound is mixed with the stated amounts of solvent and emulsifier, and the concentrate is diluted with water to the desired concentration.
as §3, §4

Phaedon cochleariae [5] = assay: Example N: Phaedon Test (spray treatment); type: in vivo; conditions: application rate 500 g/ha
Description: [table] To produce a suitable preparation of active compound, 1 part by weight of active compound is mixed with the stated amounts of solvents and emulsifier, and the concentrate is diluted with emulsifier-containing water to the desired concentration. Discs of Chinese cabbage (Brassica pekinensis) are sprayed with a preparation of active compound of the desired concentration and, after drying, populated with larvae of the mustard beetle (Phaedon cochleariae).

Meloidogyne incognita [6] = assay: Example H: Meloidogyne Test (7:1); type: in vivo; conditions: concentration of 20 ppm
Description: as §5, §3, §4

Row | Structure (SMILES) | herbicidal effect, Echinochloa (Echinocloa crus-galli) [%] | herbicidal effect, Lolium (Lolium multiflorum) [%] | herbicidal effect, Setaria (Setaria viridis) [%] | herbicidal effect, Sinapis [1] [%] | further results
1 | Cc1cc(C)c(C2=C(O)C3(CCC4(CC3)OCCO4)NC2=O)c(C)c1 [Ex. I-1-a-2] | 80 | 70 | 90 | 60 | activity (kill in %) (Plutella xylostella): 100%; activity (kill in %) (Nephotettix cincticeps): 100%
2 | Cc1cc(C)c(C2=C(O)C3(CCC4(CC3)OCCO4)OC2=O)c(C)c1 [Ex. I-2-a-2] | 80 | 90 | 100 | 70 | activity (kill in %) (Plutella xylostella): 100%; activity (kill in %) (Nephotettix cincticeps): 100%; herbicidal effect, Amaranthus [1]: 60%
3 | Cc1cc(Cl)cc(C)c1C1=C(O)C2(CCC3(CC2)OCCCO3)OC1=O [Ex. I-2-a-6] | 60 | 80 | 80 | 60 | 
4 | O=C1NC2(CCC3(CC2)OCCCO3)C(O)=C1c1cc(-c2ccc(Cl)cc2)ccc1Cl [Ex. I-1-a-15] |  |  |  |  | nematicidal activity in % (formation of galls) (Meloidogyne incognita [2]): 100%; damage, Sugar beet (Test plants; crop plant, sub-table 3): 0%; damage, Alopecurus (Test plants; sub-table 3): 95%; damage, Avena fatua (Test plants; sub-table 3): 80%; damage, Echinochloa (Test plants; sub-table 3): 99%; damage, Setaria (Test plants; sub-table 3): 70%
5 | Cc1cc(C)c(C2=C(O)C3(CCC4(CC3)OC(C)CC(C)O4)NC2=O)c(C)c1 (mixture of isomers) [Ex. I-1-a-21] | 80 | 80 | 90 | 70 | 
6 | CCOC(=O)OC1=C(c2c(CC)cc(Cl)cc2OC)C(=O)NC12CCC1(CC2)OCCO1 [Ex. I-1-c-25] |  |  |  |  | Summer barley observed (%) (cereal crop plants): 50%
7 | Cc1cc(C)c(C2=C(O)C3(CCC4(CC3)OCC(C)(C)CO4)NC2=O)c(C)c1 [Ex. I-1-a-23] |  |  |  |  | activity (kill in %) (Phaedon cochleariae [3]): 100%
8 | Cc1cc(Br)cc(C)c1C1=C(O)C2(CCC3(CC2)OCCCO3)NC1=O [Ex. I-1-a-19] | 90 | 90 | 90 | 70 | 
9 | Cc1ccc(C)c(C2=C(O)C3(CCC4(CC3)OCCCO4)NC2=O)c1 [Ex. I-1-a-12] |  |  |  |  | nematicidal activity in % (formation of galls) (Meloidogyne incognita [4]): 80%
10 | Cc1cc(C)c(C2=C(O)C3(CCC4(CC3)OC(C)C(C)O4)NC2=O)c(C)c1 (mixture of isomers) [Ex. I-1-a-7] | 60 | 80 | 80 | 60 | activity in % (Phaedon cochleariae [5]): 100%
11 | Cc1cc(Cl)cc(C)c1C1=C(O)C2(CCC3(CC2)OCCO3)NC1=O [Ex. I-1-a-4] |  |  |  |  | nematicidal activity in % (formation of galls) (Meloidogyne incognita [6]): 95%; damage, Amaranthus (Test plants; sub-table 1): 95%; damage, Echinochloa (Test plants; sub-table 1): 100%; damage, Galium (Test plants; sub-table 1): 70%; damage, Setaria (Test plants; sub-table 1): 100%; damage, Sinapis (Test plants; sub-table 1): 70%
12 | Cc1cc(C)c(C2=C(OC(=O)C(C)(C)C)C3(CCC4(CC3)OCCO4)OC2=O)c(C)c1 [Ex. I-2-b-2] |  |  |  |  | activity (kill in %) (Plutella xylostella): 100%; activity (kill in %) (Nephotettix cincticeps): 100%
13 | CCOC(=O)OC1=C(c2c(C)cc(C)cc2C)C(=O)NC12CCC1(CC2)OCC(C)O1 (mixture of isomers) [Ex. I-1-c-6] | 80 | 90 | 90 | 60 | activity in % (Phaedon cochleariae [5]): 100%
14 | Cc1cc(C)c(C2=C(O)C3(CCC4(CC3)OCCCO4)NC2=O)c(C)c1 [Ex. I-1-a-18] | 90 | 80 | 100 |  | activity in % (Phaedon cochleariae [5]): 100%

— patent US7897543B2, “Spiroketal-substituted cyclic ketoenols” (Bayer CropScience AG, priority 2005, dated 2011)
